Source: paper PMC3679734 (BMC Research Notes, 2013)

How the values were obtained:
human DAT [1] = molecular target: T1, human DAT (Homo sapiens, UniProt Q01959); assay: Inhibition of methamphetamine-induced DA release; assay type: cell-based; conditions: HEK-293 cells expressing human DAT preloaded with 3H-DA; release induced with 10 μM methamphetamine, 15 min; means of 3–4 independent experiments and 95% CI
T1 construct: expressed in transfected cells; host or cells: HEK-293 cells (Invitrogen, Zug, Switzerland)
T1 sequence (Q01959 whole entry): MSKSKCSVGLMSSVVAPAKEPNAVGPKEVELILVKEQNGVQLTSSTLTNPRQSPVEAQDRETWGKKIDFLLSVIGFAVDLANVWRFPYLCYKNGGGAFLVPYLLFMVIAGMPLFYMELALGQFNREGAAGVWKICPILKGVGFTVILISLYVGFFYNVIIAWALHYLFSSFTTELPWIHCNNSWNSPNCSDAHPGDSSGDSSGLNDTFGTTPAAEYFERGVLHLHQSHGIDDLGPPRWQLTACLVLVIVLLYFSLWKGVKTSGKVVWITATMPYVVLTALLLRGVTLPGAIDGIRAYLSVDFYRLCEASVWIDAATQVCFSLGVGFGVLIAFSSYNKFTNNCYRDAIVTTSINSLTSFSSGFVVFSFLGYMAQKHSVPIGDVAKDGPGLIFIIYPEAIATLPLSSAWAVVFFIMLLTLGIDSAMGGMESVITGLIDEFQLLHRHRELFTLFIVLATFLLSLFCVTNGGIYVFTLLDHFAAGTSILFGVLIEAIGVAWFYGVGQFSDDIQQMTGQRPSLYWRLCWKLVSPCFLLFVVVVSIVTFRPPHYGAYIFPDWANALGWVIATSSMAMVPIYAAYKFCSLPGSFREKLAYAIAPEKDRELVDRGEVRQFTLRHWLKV
Experimental: We performed DA transporter mediated release experiments as previously published with slight modification. In brief, HEK-293 cells expressing the human DAT as stated above were cultured in 48 well-plates. Cells were filled with ^3H-DA, washed, and incubated with 250 μL buffer containing the drug alone or in combinations. […] DA release was stopped after 15 min by removing the release buffer from the cells. To quantify the DA release we determined the radioactivity in the cells after another wash step. The residual radioactivity in the cells after methamphetamine alone defined 100% DA release.

human DAT [2] = molecular target: T1, human DAT; assay: Inhibition of DA uptake; assay type: cell-based
Experimental: The potencies of the drugs to inhibit the DAT were evaluated as previously described in HEK-293 cells (Invitrogen, Zug, Switzerland) stably transfected with the human DAT [8].

human DAT [3] = molecular target: T1, human DAT; set-up: method as in PMID 22897747; conditions: read-out: DA release potency (EC50); HEK-293 cells expressing human DAT; 95% CI 0.9 μM-[…]; as shown previously ref 25; cited from earlier work

CCCC(C(=O)c1ccc2c(c1)OCO2)N1CCCC1 (stereo not shown) [MDPV, 3,4-methylenedioxypyrovalerone]
IC50 (human DAT [1]): 280 nM | IC50 (human DAT [2]; HEK-293 cells stably transfected with the human DAT, means of 3–4 independent experiments and 95% CI, read-out: DA uptake IC50 (95% CI)): 31 nM

CN[C@@H](C)Cc1ccccc1 [Methamphetamine, d-methamphetamine]
IC50 (human DAT [2]): 1050 nM | EC50 (human DAT [3]): 1560 nM
